Among the data in ChEMBL document CHEMBL4428109, “Structure-activity relationship studies of non-carboxylic acid peroxisome proliferator-activated receptor α/δ (PPARα/δ) dual agonists” (Bioorg Med Chem, 2016) are EC50, Emax and Activity values, retold here.

In assay [1] the target is T1, Peroxisome proliferator-activated receptor delta (Homo sapiens, UniProt Q03181).
T1 sequence (Q03181 whole entry): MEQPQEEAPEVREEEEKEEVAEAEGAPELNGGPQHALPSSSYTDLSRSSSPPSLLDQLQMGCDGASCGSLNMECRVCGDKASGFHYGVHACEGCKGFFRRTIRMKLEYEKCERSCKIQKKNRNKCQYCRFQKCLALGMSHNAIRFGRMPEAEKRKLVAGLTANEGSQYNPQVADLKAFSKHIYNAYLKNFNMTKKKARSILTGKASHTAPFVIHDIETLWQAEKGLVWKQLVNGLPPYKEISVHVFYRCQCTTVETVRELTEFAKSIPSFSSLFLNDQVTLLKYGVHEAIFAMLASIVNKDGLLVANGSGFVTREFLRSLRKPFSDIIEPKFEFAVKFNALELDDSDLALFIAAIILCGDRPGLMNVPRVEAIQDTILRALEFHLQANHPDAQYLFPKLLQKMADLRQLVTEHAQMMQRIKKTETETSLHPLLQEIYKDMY
Put plainly: Agonist activity at N-terminal Gal4 fused human PPARdelta LBD transfected in HEK293 cells after 24 hrs by luciferase reporter gene assay. In kind it is cell-based. On the technique in general: A reporter such as luciferase makes a cellular process visible.

Assay [2] has as its target T2, Peroxisome proliferator-activated receptor alpha (Homo sapiens, UniProt Q07869).
T2 sequence (Q07869 whole entry): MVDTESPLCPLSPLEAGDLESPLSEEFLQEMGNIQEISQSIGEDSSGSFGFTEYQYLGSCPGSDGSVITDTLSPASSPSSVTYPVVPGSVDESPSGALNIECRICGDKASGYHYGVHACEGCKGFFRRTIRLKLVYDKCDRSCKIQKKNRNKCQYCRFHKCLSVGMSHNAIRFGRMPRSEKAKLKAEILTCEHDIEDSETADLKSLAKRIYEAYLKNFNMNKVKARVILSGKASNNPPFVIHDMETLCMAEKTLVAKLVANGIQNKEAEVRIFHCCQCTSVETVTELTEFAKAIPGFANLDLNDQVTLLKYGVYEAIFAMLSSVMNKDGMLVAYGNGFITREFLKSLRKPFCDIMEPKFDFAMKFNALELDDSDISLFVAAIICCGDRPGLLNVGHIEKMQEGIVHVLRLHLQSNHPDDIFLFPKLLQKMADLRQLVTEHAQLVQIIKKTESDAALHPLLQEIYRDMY
Put plainly: Agonist activity at N-terminal Gal4 fused human PPARalpha LBD transfected in HEK293 cells after 24 hrs by luciferase reporter gene assay. In kind it is cell-based.

For assay [3], the target named is T3, Peroxisome proliferator-activated receptor alpha (Homo sapiens) (UniProt Q07869).
T3 sequence (whole entry): T2 sequence (Q07869 whole entry)
Nature of the assay: Agonist activity at N-terminal Gal4 fused human PPARalpha LBD transfected in HEK293 cells after 24 hrs by luciferase reporter gene assay relative to GW7647. In kind it is cell-based.

Assay [4] has as its target T4, Oxysterols receptor LXR-beta (Homo sapiens) (UniProt P55055).
T4 sequence (whole entry): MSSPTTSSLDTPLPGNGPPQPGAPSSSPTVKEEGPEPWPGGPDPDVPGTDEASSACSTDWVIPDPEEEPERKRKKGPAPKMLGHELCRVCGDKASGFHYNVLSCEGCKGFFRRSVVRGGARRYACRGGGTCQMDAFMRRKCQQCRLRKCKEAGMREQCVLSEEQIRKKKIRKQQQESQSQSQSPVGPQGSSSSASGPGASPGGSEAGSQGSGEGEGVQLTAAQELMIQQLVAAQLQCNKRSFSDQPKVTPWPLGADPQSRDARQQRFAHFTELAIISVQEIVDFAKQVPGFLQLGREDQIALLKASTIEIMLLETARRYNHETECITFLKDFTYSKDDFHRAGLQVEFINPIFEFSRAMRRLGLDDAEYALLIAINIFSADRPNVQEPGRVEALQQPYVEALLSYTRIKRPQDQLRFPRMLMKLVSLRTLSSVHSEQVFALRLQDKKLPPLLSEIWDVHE
Put plainly: Agonist activity at LXRbeta (unknown origin) at < 20 uM.

Assay [5] concerns the target T5, Retinoic acid receptor RXR-alpha (Homo sapiens) (UniProt P19793).
T5 sequence (whole entry): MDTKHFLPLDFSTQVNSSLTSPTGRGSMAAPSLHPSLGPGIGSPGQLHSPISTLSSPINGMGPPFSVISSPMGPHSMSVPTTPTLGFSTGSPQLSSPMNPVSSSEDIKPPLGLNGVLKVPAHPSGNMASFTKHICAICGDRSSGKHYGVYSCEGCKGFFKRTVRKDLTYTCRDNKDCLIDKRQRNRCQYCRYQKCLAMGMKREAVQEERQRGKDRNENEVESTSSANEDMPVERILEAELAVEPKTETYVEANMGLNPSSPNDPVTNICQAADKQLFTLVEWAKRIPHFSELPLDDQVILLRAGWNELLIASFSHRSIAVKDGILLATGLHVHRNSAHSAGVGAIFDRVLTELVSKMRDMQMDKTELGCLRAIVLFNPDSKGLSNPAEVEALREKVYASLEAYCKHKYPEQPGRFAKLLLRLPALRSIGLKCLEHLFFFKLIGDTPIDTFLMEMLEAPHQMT
Nature of the assay: Agonist activity at RXRalpha (unknown origin) at < 20 uM.

Assay [6] concerns the target T6, Oxysterols receptor LXR-alpha (Homo sapiens) (UniProt Q13133).
T6 sequence (whole entry): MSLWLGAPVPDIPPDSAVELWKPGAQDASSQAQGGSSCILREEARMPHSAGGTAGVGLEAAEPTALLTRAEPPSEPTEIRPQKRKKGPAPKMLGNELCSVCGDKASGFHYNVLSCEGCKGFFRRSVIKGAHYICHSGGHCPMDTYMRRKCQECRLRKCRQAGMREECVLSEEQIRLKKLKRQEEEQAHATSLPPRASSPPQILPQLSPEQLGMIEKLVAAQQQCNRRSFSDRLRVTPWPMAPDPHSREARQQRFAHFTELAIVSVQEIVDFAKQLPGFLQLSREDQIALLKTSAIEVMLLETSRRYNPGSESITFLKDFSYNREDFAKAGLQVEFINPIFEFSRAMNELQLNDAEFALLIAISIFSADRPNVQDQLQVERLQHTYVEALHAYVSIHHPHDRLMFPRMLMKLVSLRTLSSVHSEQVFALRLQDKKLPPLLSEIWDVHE
Nature of the assay: Agonist activity at LXRalpha (unknown origin) at < 20 uM.

Assay [7] deals with T7, Retinoic acid receptor RXR-gamma (Homo sapiens) (UniProt P48443).
T7 sequence (whole entry): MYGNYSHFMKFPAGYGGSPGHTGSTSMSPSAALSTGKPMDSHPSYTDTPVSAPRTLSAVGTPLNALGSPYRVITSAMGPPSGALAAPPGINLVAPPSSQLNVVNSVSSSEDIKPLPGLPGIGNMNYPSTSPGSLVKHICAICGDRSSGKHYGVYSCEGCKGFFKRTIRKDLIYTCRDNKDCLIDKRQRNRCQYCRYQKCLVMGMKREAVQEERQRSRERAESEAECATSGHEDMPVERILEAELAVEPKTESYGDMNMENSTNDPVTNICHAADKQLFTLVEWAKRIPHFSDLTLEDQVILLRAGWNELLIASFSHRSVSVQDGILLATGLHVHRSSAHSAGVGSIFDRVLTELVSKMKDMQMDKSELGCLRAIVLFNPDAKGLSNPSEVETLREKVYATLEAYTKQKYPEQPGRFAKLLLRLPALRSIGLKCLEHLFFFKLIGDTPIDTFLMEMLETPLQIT
Put plainly: Agonist activity at RXRgamma (unknown origin) at < 20 uM.

Activity calls are given as the source filed them. The calls are words filed in the database; no cut-off is given here.

As usually defined, the EC50 is the concentration giving half of the maximal effect. Read a high EC50 as a need for much substance.

Turning to `CC(=O)NC(C)c1nc(-c2ccc(Oc3ccc(OCc4ccccc4)cc3)cc2)no1` (configuration not stated), the values for the EC50 in assay [1] and in assay [2] were 46 nM and 33 nM, respectively. The Emax in assay [3] lay in the range of 16 to 35%. Further, the outcome in assay [4], in assay [5], in assay [6] and in assay [7] was inactive.
